Assay: Clinical trial of Example 11: fecal metal excretion and stool weight
Assay type: in vivo, human
Settings: groups receiving mannitol with CLP; passage through the entire gastrointestinal tract
Protocol: For this clinical trial, an open-label, non-randomized, multiple-dose study in eighteen healthy subjects divided into six groups of three subjects in each group was conducted. Subjects were placed into one of six groups on day six, based upon the previous five days of stool weights, so that the average daily stool weight is approximately equal across groups.
CLP (milled) with and without mannitol (Groups 1, 2, 5 and 6) was in size 00 HPMC capsules that are uncoated. CLP (beads) and mannitol alone were supplied in bottles so that they may put into size 00 HPMC capsules (Groups 3 and 4).
CLP was administered according to treatment assignment (Groups 1, 2, 3, and 4) in a fasted state, at least one hour prior to each of four meals/snack and administered with water. Subjects were restricted from additional fluids for one hour pre and post dose. For Groups 5 and 6, CLP is administered in a fed state, thirty minutes following the end of a meal and evening snack, administered with water and without any fluid restriction.
Each sample was individually weighed and the color and consistency of the stool noted. The weights were added together to determine the total fecal weight resulting from each day's intake. The entire weight of stool between the color markers was also totaled separately for both the baseline period and the experimental period. […]

In the case of `OC[C@@H](O)[C@@H](O)[C@H](O)[C@H](O)CO` [mannitol], the “Effect of mannitol on fluid removal (stool weight)” value is reported as “does not increase fluid removal and may decrease fluid removal”.
